The test system of assay [1] is green peach aphid (Myzus persicae). The experiment in a line: Myzus test (MYZUPE spray treatment). The settings on record: application rate of 500 g/ha; spray treatment of infested Chinese cabbage leaf discs, all stages. Type of assay: in vivo. The method, then: Myzus Test (MYZUPE Spray Treatment) Solvents: 78 parts by weight of acetone • • 1.5 parts by weight of dimethylformamide Emulsifier: 0.5 part by weight of alkylaryl polyglycol ether To produce a suitable preparation of active compound, 1 part by weight of active compound is mixed with the stated amounts of solvent and emulsifier, and the concentrate is diluted with emulsifier-containing water to the desired concentration. Discs of Chinese cabbage leaves (Brassica pekinensis) which are infested by all stages of the green peach aphid (Myzus persicae) are sprayed with a preparation of active compound of the desired concentration. After the desired period of time, the effect in % is determined 100% means that all aphids have been killed; 0% means that none of the aphids have been killed.

Assay [2] relates to larvae of the mustard beetle (Phaedon cochleariae). The experiment in a line: Phaedon test (PHAECO spray treatment). Type of assay: in vivo. To be noted: application rate of 500 g/ha; spray treatment of Chinese cabbage leaf discs. The method, then:
Phaedon Test ([…] Spray Treatment) Solvents: 78 parts by weight of acetone • • 1.5 parts by weight of dimethylformamide Emulsifier: 0.5 part by weight of alkylaryl polyglycol ether To produce a suitable preparation of active compound, 1 part by weight of active compound is mixed with the stated amounts of solvent and emulsifier, and the concentrate is diluted with emulsifier-containing water to the desired concentration. Discs of Chinese cabbage leaves (Brassica pekinensis) are sprayed with an active compound preparation of the desired concentration and, after drying, populated with larvae of the mustard beetle (Phaedon cochleariae). After the desired period of time, the effect in % is determined 100% means that all beetle larvae have been killed; 0% means that none of the beetle larvae have been killed.

`FC(F)CN(Cc1ccc(Cl)nc1)C1=CC(=S)OC1` [Ex. No. 1, 4-{[(6-Chloropyridin-3-yl)methyl](2,2-difluoroethyl)amino}furan-2(5H)-thione]: the “activity (effect in %; 100% means that all aphids have been killed)” value in assay [1] is reported as at least 80%. The “activity (effect in %; 100% means that all beetle larvae have been killed)” value in assay [2] is at least 80%.
